Experimental data published in patent US8618068B2, “Methods and low dose regimens for treating red blood cell disorders” (priority 2009, dated 2013).
Values joined by “and” are separate entries in the source; they are usually repeats but may differ in a detail not shown here. Equal entries are not always repeated.

Experiments:
reticulocyte counts = test: Reticulocyte counts in transgenic mice; assay type: in vivo; conditions: 500 mg/kg/day
Text: (§1) Transgenic mice containing the human β globin gene locus in a yeast artificial chromosome (βYAC) displaying the correct developmental regulation of ε-, γ-, and β-globin genes (with a silenced y-globin gene in the adult stage) were used to study the effects of DMB on γ-globin induction and erythroid cell production. In the μLCR-human A γ-globin transgenic mice, the y-globin mRNA expression relative to murine α-globin mRNA was increased by a mean of 1.8-fold above the baseline after treatment with DMB. In the βYAC transgenic mice at intraperitoneal (IP) doses of 500 mg/kg/day, DMB induced a 2-fold increase in human γ-globin mRNA synthesis relative to that of total non-α-globin. This level of induction was similar to that seen with 1,000 mg/kg/day of butyrate, and the changes were observed from 3 days after treatment initiation and persisted until 3 to 5 days after treatment termination.
Reticulocytosis was observed from day 3 up to day 12 (at the end of sampling).

human γ-globin mRNA = test: Human γ-globin mRNA synthesis in βYAC transgenic mice; assay type: in vivo; conditions: IP 500 mg/kg/day
Text: as §1

[1] = 28-Day repeat dose toxicity study in rats; assay type: in vivo, Sprague Dawley rats
Text: Completed toxicology studies conducted with DMB include a single-dose toxicity study in Sprague-Dawley rats, escalating dose toxicity study in Beagle dogs, a repeat dose study of 14-Day duration in Sprague-Dawley rats and repeat-dose toxicity studies of 28-Day duration in Sprague-Dawley rats and Beagle dogs, and 26-Week studies in Sprague-Dawley rats and Beagle dogs. […] Reproductive toxicity studies include two dose-range finding studies, one in Sprague-Dawley rats, the other in New Zealand white rabbits. DMB was administered once a day (QD) orally via gavage; doses are expressed as the sodium salt. In addition, an array of genotoxicity studies were conducted with DMB.
There were no histologic correlates with these findings. […] These changes in organ weight were not associated with abnormal pathology and not considered adverse.
Kidney weight was not increased in the single surviving 2,000/1,500 mg/kg/day male. […] There were no test article-related histomorphologic alterations consistent with the increase in absolute or relative kidney weights at either dose level.
Several clinical pathology changes occurred in the 28-Day Sprague Dawley rat study. […] At ≧1,000 mg/kg/day, decreases in Hgb, Hct, MCV, and MCHC, were observed. Decreases in Hgb, Hct, and MCV were also seen in 500 mg/kg/day females. Activated partial thromboplastin time was decreased in males at ≧1,000 mg/kg/day and females at 2,000/1,500 mg/kg/day and prothrombin time was increased in males of both groups. […] These serum chemistry changes were associated with the decreases seen in body weights and food consumption in these groups.

γ-globin mRNA = γ-globin mRNA in anemic baboons given HU and DMB; assay type: in vivo; conditions: HU 3 days/week
[2] = Phase 2 trial in thalassemia intermedia patients, safety; assay type: in vivo, human
Protocol: A randomized, doubled blind, placebo-controlled, multiple ascending dose Phase I/II trial was conducted in 21 adult patients with beta thalassemia intermedia, including 14 patients with HbE/β^0 thalassemia from Thailand and 7 patients with β^+/β^0 thalassemia (including 12 different beta globin gene mutations). Study medication was taken as a single daily dose of DMB for 8 weeks followed minimally by a 4 week break and follow-up period. Four ascending dose levels (10, 20, 30, and 40 mg/kg/day) were sequentially evaluated in 4 dose level cohorts after the preceding dose and schedule were determined safe by an independent and unblinded Safety Monitoring Committee.
All treatment groups had two placebo patients; placebo patients in the first dose group were randomized to treatment in the second dose group. Ten patients in Thailand (all HbE type) were treated with 10 mg/kg (8 active/2 placebo) followed by eight patients in Thailand who were treated followed by 30 mg/kg (6 active/2 placebo). Eleven patients (4 That, 7 Lebanese) were treated with 20 mg/kg followed by 40 mg/kg (9 active [6 Lebanese/3 That]/2 placebo). Patients ranged in age from 17 to 49 with a median age of 31 and were comprised for 16 females and 5 males.
Patients were monitored every 2 weeks for laboratory studies, physical examinations, and adverse events. Further, patients were followed for hematologic parameters primarily focusing on hemoglobin and fetal hemoglobin (HbF). In addition, pharmacokinetic samples were obtained on Day 0 and 13, at pre-dose and 2, 4, 6, 8, 12, and 24 hours post-dosing. Hemoglobin was measured at each site using standard hematology equipment. HbF was measured using Varian HPLC. […] Adverse events in treated subjects included headache, upper respiratory infection, pyrexia, fatigue, nausea, and dizziness, but the rates of such events were not markedly different from those observed in the placebo-treated subjects.

In the case of CCC(C)(C)C(=O)[O-].[Na+] [DMB, Sodium 2,2-dimethylbutyrate], the “increase in reticulocyte counts” value (reticulocyte counts) is reported as “approximately 6.7 fold”, the “increase in human γ-globin mRNA synthesis relative to total non-α-globin” value (human γ-globin mRNA) is reported as 2 fold and the “RBC, lymphocyte, and leukocyte counts” value ([1]; 2,000/1,500 mg/kg/day) is reported as “decreased”. The NOAEL at 28 days ([1]; female, Sprague Dawley, rat, in vivo) was 200 mg/kg/day and 32 mg/kg, the “aspartate aminotransferase (AST)” value ([1]; males 1,000 mg/kg/day) was “slight increases” and the “alanine aminotransferase (ALT)” value ([1]; males 1,000 mg/kg/day, females 2,000/1,500 mg/kg/day) was “slight increases”. For the same compound, the “mean absolute and relative kidney weights” value ([1]; males 500 and 1,000 mg/kg/day, females 1,000 mg/kg/day) was “statistically significant, test article-related increases”, the “mean absolute and relative liver weights” value ([1]; males and females at 1,000 mg/kg/day) was “statistically significant, test article-related increases” and the prothrombin time ([1]; males of both groups) was “increased”. For the same compound, the “Activated partial thromboplastin time” value ([1]; males ≧1,000 mg/kg/day, females 2,000/1,500 mg/kg/day) was “decreased”, the “Hgb, Hct, MCV, and MCHC” value ([1]; ≧1,000 mg/kg/day) was “decreases” and the “γ-globin mRNA increase above baseline” value (γ-globin mRNA) was 290%. The Dizziness ([2]; 10 mg/kg) was 2 (25) n (%), the Fatigue ([2]; 10 mg/kg) was 1 (13) n (%) and the Headache ([2]; 10 mg/kg) was 5 (63) n (%). For the same compound, the Nausea ([2]; 10 mg/kg) was 0 n (%), the Pyrexia ([2]; 10 mg/kg) was 3 (38) n (%) and the “Serious adverse event: Palpitations” value ([2]; 10 mg/kg) was 1 (13) 10 mg/kg n (%). The “Treatment Related? (Palpitations)” value ([2]; 10 mg/kg) was “Not related to treatment”, the “Upper Respiratory Tract Infection” value ([2]; 10 mg/kg) was 5 (63) n (%) and the “subjects who discontinued study medication due to anemia” value ([2]; 10 mg/kg, considered not related to study medication) was “Two”. For the same compound, the Dizziness ([2]; 20 mg/kg) was 2 (22) n (%), the Fatigue ([2]; 20 mg/kg) was 0 n (%) and the Headache ([2]; 20 mg/kg) was 3 (33) n (%). For the same compound, the Nausea ([2]; 20 mg/kg) was 2 (22) n (%), the Pyrexia ([2]; 20 mg/kg) was 0 n (%) and the “Serious adverse event: Suprapubic Pain” value ([2]; 20 mg/kg) was 1 (11) 20 mg/kg n (%). For the same compound, the “Treatment Related? (Suprapubic Pain)” value ([2]; 20 mg/kg) was “Unlikely related”, the “Upper Respiratory Tract Infection” value ([2]; 20 mg/kg) was 2 (22) n (%) and the Dizziness ([2]; 30 mg/kg) was 0 n (%). The Fatigue ([2]; 30 mg/kg) was 0 n (%), the Headache ([2]; 30 mg/kg) was 2 (33) n (%) and the Nausea ([2]; 30 mg/kg) was 0 n (%). The Pyrexia ([2]; 30 mg/kg) was 2 (33) n (%), the “Upper Respiratory Tract Infection” value ([2]; 30 mg/kg) was 1 (17) n (%) and the Dizziness ([2]; 40 mg/kg) was 1 (11) n (%). The Fatigue ([2]; 40 mg/kg) was 4 (44) n (%), the Headache ([2]; 40 mg/kg) was 1 (11) n (%) and the Nausea ([2]; 40 mg/kg) was 3 (33) n (%). The Pyrexia ([2]; 40 mg/kg) was 1 (11) n (%), the “Serious adverse event: Gastritis” value ([2]; 40 mg/kg) was 1 (11) 40 mg/kg n (%) and the “Treatment Related? (Gastritis)” value ([2]; 40 mg/kg) was “Not related to treatment”. The “Upper Respiratory Tract Infection” value ([2]; 40 mg/kg) was 1 (11) n (%), the tolerability ([2]; 10 to 40 mg/kg/day, 8 weeks) was “well tolerated” and the “Serious adverse event: Gastroenteritis” value ([2]; HQK-1001 groups) was 0 n (%). For the same compound, the “Serious adverse event: Upper Respiratory Infection” value ([2]; HQK-1001 groups) was 0 n (%).
